Columns and labels:
[1] = tested on: Split3WJ.1_up_5IB+Split3WJ.1_down_3FAM (trans 3WJ as 1:1 mix); assay: Fluorescence quenching binding assay (FAM / Iowa Black); conditions: two concentration points
Description: (§1) This assay will be used to test binding of compounds for RNA three way junction (such as a 38 nt construct). This is a fluorescence quenching assay utilizing FAM as fluorescence tag and Iowa Black as quencher. Tags are attached at the 3′ and 5′ end, respectively. Stable formation of MW upon compound binding would lead to quenching of the FAM fluorescence due to close proximity of the Iowa Black tag. Assay readout: FAM (485-520 nm) Fluorescence Intensity.
(§2) Assay sample buffer used: 10 mM CacoK pH 7.2, 30 mM NaCl. Buffer preparation in Dnase/Rnase Free distilled water (Gibco Life Technologies).
(§3) Dilute the RNA 1:10 (final 10 μM) in Assay Buffer.
(§4) Heat up the diluted RNA up to 90° C. for 5 min (sealed Eppendorf Tube).
(§5) Cool down the RNA probe slowly to RT.
(§6) Dilute the compounds to 800 μM in DMSO (Assay: 8 μM).
(§7) Final concentrations in the sample: 1-10 μM RNA, 8 μM compound, 1% DMSO
(§8) Pipet 25 μL Sample Solution into Greiner cat #784076, black, 384
(§9) Measure the 96 plate with the LightCycler480 (Channel: 485/520 nm).
(§10) The fluorescence quenching experiment was repeated for compounds Ark0000013 and Ark0000014 to measure binding with:
B) Split3WJ.1_up_5IB+Split3WJ.1_down_3FAM (trans 3WJ as 1:1 mix)
(§11) Both cmpds were tested at two concentration points in the fluorescence quenching assays to assess effect upon RNA constructs utilized in the study. […]

[2] = tested on: RNA3WJ_1.0.0_5IB_3FAM (cis 3WJ with one unpaired nucleotide); assay: Thermal shift binding assay; conditions: 1 μM RNA, 8 μM compound, 10 mM CacoK pH 7.2, 30 mM NaCl
Excerpt: (§12) Purpose: Test binding of compounds for RNA three way junction (for example, a construct of 38 nt). Thermal shift assay based on established fluorescence quenching assay utilizing FAM as fluorescence tag and Iowa Black as quencher. Tags were attached at the 3′ and 5′ end, respectively. Stable formation of 3WJ upon compound binding would lead to quenching of the FAM fluorescence due to close proximity of the Iowa Black tag. Thermal unfolding leads to increase of fluorescence emission. Assay readout: FAM (465-510 nm) Thermal Shift.
as §2, §3, §4, §5, §6
(§13) Final concentrations in the sample: 1 μM RNA, 8 μM compound, 1% DMSO
(§14) Pipet 20 μL Sample Solution into Roche, Light Cycler480 Multiwell Plate96, white, REF 04729692001.
(§15) Measure the 96 plate with the LightCycler480 (Channel: 480/510 nm; Temperature: 41-91° C.).
(§16) Analyse measurement-data with the MeltingCurveGenotyping Mode.
(§17) Settings: Acquisition mode: continuous; Ramp rate: 0.1° C./sec; Acquisition: 6° C.
(§18) Curves are fitted with raw and normalized data.
(§19) Melting curves analysis show melting temperature (Tm) of ˜51° C. Range of RNA concentrations was tested and assay window was determined (conc. range of 0.5-1 μM yields best results). The choice of buffer also affected the Tm. RNA constructs were tested under different buffer conditions (especially in presence of salt) in the thermal shift assay. […] CacoK with 30 mM salt at 1 μM RNA conc. was used to assess compound effects on 3WJ stability. […] These conditions were used for screening test compounds.
(§20) Compounds Ark0000013 and Ark0000014 were also tested in the thermal shift assay against three RNA 3WJ constructs, A) RNA3WJ_1.0.0_5IB_3FAM (cis 3WJ with one unpaired nucleotide); B) Split3WJ.1_up_5IB+Split3WJ.1_down_3FAM (trans 3WJ as 1:1 mix); and C) Split3WJ.2_up_5IB+Split3WJ.2_down_3FAM (trans 3WJ as 1:1 mix).

[3] = tested on: Split3WJ.2_up_5IB+Split3WJ.2_down_3FAM (trans 3WJ as 1:1 mix; Split3WJ_2); assay: Thermal shift binding assay; conditions: 1 μM RNA, 8 μM compound, 10 mM CacoK pH 7.2, 30 mM NaCl
Excerpt: as §12, §2, §3, §4, §5, §6, §13, §14, §15, §16, §17, §18, §19, §20

[4] = tested on: Split3WJ.1_up_5IB+Split3WJ.1_down_3FAM (trans 3WJ as 1:1 mix; Split3WJ_1); assay: Thermal shift binding assay; conditions: 1 μM RNA, 8 μM compound, 10 mM CacoK pH 7.2, 30 mM NaCl
Excerpt: as §12, §2, §3, §4, §5, §6, §13, §14, §15, §16, §17, §18, §19, §20

[5] = tested on: RNA3WJ_0.0.0_5IB_3FAM (3WJ_0.0.0_5IB_3FAM RNA construct); assay: Thermal shift binding assay
Excerpt: as §12, §2, §3, §4, §5
(§21) Dilute the compounds to 800 μM in DMSO (Assay: 8 μM). […]
as §14, §15, §16, §17, §18, §19

RNA3WJ_3.0.0_5IB_3FAM = assay: Thermal shift binding assay; conditions: 1 μM RNA, 8 μM compound, 10 mM CacoK pH 7.2, 30 mM NaCl
Excerpt: as §12, §2, §3, §4, §5, §21, §14, §15, §16, §17, §18, §19

[6] = tested on: RNA3WJ_1.0.0_5IB_3FAM (cis 3WJ with one unpaired nucleotide); assay: Fluorescence quenching binding assay (FAM / Iowa Black); conditions: two concentration points
Description: as §1, §2, §3, §4, §5, §6, §7, §8, §9, §10
A) RNA3WJ_1.0.0_5IB_3FAM (cis 3WJ with one unpaired nucleotide)
as §11

RNA3WJ_1.1.1_5IB_3FAM = assay: Thermal shift binding assay; conditions: 1 μM RNA, 8 μM compound, 10 mM CacoK pH 7.2, 30 mM NaCl
Excerpt: as §12, §2, §3, §4, §5, §6, §13, §14, §15, §16, §17, §18, §19

RNA3WJ_2.0.0_5IB_3FAM = assay: Thermal shift binding assay; conditions: 1 μM RNA, 8 μM compound, 10 mM CacoK pH 7.2, 30 mM NaCl
Excerpt: as §12, §2, §3, §4, §5, §6, §13, §14, §15, §16, §17, §18, §19

RNA3WJ_1.1.0_5IB_3FAM = assay: Thermal shift binding assay; conditions: 1 μM RNA, 8 μM compound, 10 mM CacoK pH 7.2, 30 mM NaCl
Excerpt: as §12, §2, §3, §4, §5, §6, §13, §14, §15, §16, §17, §18, §19

RNA3WJ_2.1.0_5IB_3FAM = assay: Thermal shift binding assay; conditions: 1 μM RNA, 8 μM compound, 10 mM CacoK pH 7.2, 30 mM NaCl
Excerpt: as §12, §2, §3, §4, §5, §6, §13, §14, §15, §16, §17, §18, §19

[7] = tested on: Split3WJ.2 up_5IB+Split3WJ.2_down_3FAM (trans 3WJ as 1:1 mix); assay: Fluorescence quenching binding assay (FAM / Iowa Black); conditions: two concentration points
Description: as §1, §2, §3, §4, §5, §6, §7, §8, §9, §10
C) Split3WJ.2 up_5IB+Split3WJ.2_down_3FAM (trans 3WJ as 1:1 mix)
as §11

[8] = 1 μM RNA, 8 μM compound, 10 mM CacoK pH 7.2, 30 mM NaCl

NCCCCCCCNC(=O)c1ccc2c(c1)C1c3cc(C(=O)NCCCCCCCN)ccc3C2c2ccc(C(=O)NCCCCCCCN)cc21 [Ark000014, N^2,N^7,N^15-tris(7-aminoheptyl)-9,10-dihydro-9,10-[1,2]benzenoanthracene-2,7,15-tricarboxamide]
fluorescence quenching effect (FAM fluorescence signal) [1]: smaller effect | Melting temp + cmpd [2]: 68.4 °C | Temp. Shift [2]: ~3 °C | Melting temp + cmpd ([2]; listed as Ark0000014): 68.1 °C | Temp. Shift ([2]; listed as Ark0000014): 2.5 °C | Melting temp + cmpd [3]: 44.7 °C | Temp. Shift [3]: ~1 °C | Melting temp + cmpd ([3]; listed as Ark0000014): 44.0 °C | Temp. Shift ([3]; listed as Ark0000014): −0.3 °C | Melting temp + cmpd [4]: 38.8 °C | Temp. Shift [4]: ~1 °C | Melting temp + cmpd ([4]; listed as Ark0000014): 37.8 °C | Temp. Shift ([4]; listed as Ark0000014): 0.3 °C | Melting temp + cmpd [5, 8]: 61.5 °C | Temp. Shift [5, 8]: 1.6 °C | Melt. Temp. with cmpd ([5]; RNA sequence 3WJ_0.0.0_5IB_FAM, melting temperature in presence of compound): 61.5 °C | Shift melt. Temp. ([5]; RNA sequence 3WJ_0.0.0_5IB_FAM, with cmpd minus without cmpd): +1.6 °C | Melting temp + cmpd (RNA3WJ_3.0.0_5IB_3FAM): 63.9 °C | Temp. Shift (RNA3WJ_3.0.0_5IB_3FAM): 1.9 °C | fluorescence quenching effect (FAM fluorescence signal) [6]: smaller effect | Melting temp + cmpd (RNA3WJ_1.1.1_5IB_3FAM): 64.3 °C | Temp. Shift (RNA3WJ_1.1.1_5IB_3FAM): 2.1 °C | Melting temp + cmpd (RNA3WJ_2.0.0_5IB_3FAM): 64.4 °C | Temp. Shift (RNA3WJ_2.0.0_5IB_3FAM): 2.2 °C | Melting temp + cmpd (RNA3WJ_1.1.0_5IB_3FAM): 65.1 °C | Temp. Shift (RNA3WJ_1.1.0_5IB_3FAM): 1.8 °C | Melting temp + cmpd (RNA3WJ_2.1.0_5IB_3FAM): 42.0 °C | Temp. Shift (RNA3WJ_2.1.0_5IB_3FAM): 0.1 °C | fluorescence quenching effect (FAM fluorescence signal) [7]: Split3WJ_2 shows larger effect

From patent US20220402883A1, “COMPOUNDS AND METHODS FOR MODULATING RNA FUNCTION” (Arrakis Therapeutics, Inc., priority 2016, published 2022)
